The results in this text go back to patent publication EP0406111A1, “Substituted arylamines and heteroarylamines, process for their preparation and pharmaceutical composition containing them” (SOCIETE DE CONSEILS DE […] D'APPLICATIONS SCIENTIFIQUES …, priority 1989, dated 1991).

Each structure is given as a SMILES string.

Data set [1] is described as follows: Toxicity test in mice, 100 mg/kg intraperitoneal. Also on record: species or system souris. The note with it: mouse, in vivo, ip, 100 mg/kg i.p., read-out: Toxicité à 100 mg/kg i.p. % mortalité à 48 h. Here is the method: Le tableau 6 annexé illustre les résultats d'essais de toxicité effectués chez la souris sur les amines substituées de l'invention à une dose de 100mg/kg par voie intrapéritonéale.

Another data set has as its target T1, capture de noradrénaline (Rattus norvegicus, UniProt Q63380).
T1 construct: préparations synaptosomales brutes d'hypothalamus de rats; from tissue; host or cells: male Sprague-Dawley rat hypothalamus, crude synaptosomal fraction
Description: Tritiated noradrenaline uptake by crude synaptosomal preparations of rat hypothalamus (Example 37). In kind it is biochemical. The conditions noted are these: rat hypothalamus synaptosomes, 50 nM tritiated noradrenaline, 10 min at 37°C; read-out: Capture 3H-NA IC₅₀. The protocol: Exemple 37 : Mesure de la capture de noradrénaline.
La capture de noradrénaline tritiée (40 Ci/mmole) est évaluée à partir de préparations synaptosomales brutes d'hypothalamus de rats (Sprague-Dawley mâle, 200-300g, Charles River, St Aubin lès Elbeuf, France).
Les animaux sont sacrifiés par décapitation et les cerveaux sont rapidement dégagés. Les hypothalami, disséqués à 0-4°C, sont homogénéisés dans 10 volumes (poids/volume) de saccharose 0,32 M préalablement refroidi, au moyen d'un homogénéiseur type Potter-Elvejhem (clairance 80-130 µm, 800 rpm). Les débris cellulaires et le matériel nucléaire sont éliminés par centrifugation (1000 g, 10 min, 4°C). Le surnageant constitue la fraction synaptosomale brute.
Des aliquots (50 µl) de préparation synaptosomale sont préincubés pendant 5 minutes à 37°C, en présence de pargyline 20 µM, et de concentrations croissantes des composés à tester, dans […] d'un milieu Krebs-Ringer enrichi en glucose (composition en mM : NaCl 103, CaCl₂1, MgCl₂ 1, KH₂PO₄ 1, NaHCO₃ 27, acide ascorbique 0,1, glucose 5,4). A l'issue de cette préincubation, la noradrénaline tritiée (concentration finale 50 nM) est ajoutée sous un volume de 40 µl, et l'incubation est poursuivie à 37°C pendant 10 minutes. La réaction est arrêtée par dilution avec 2 ml de milieu glacé et centrifugation (7000 g, 10 minutes, 4°C). Après lavage du culot de centrifugation dans 1 ml de milieu glacé, l'échantillon est à nouveau centrifugé dans les mêmes conditions. Le culot obtenu est remis en suspension dans 250 µl d'eau distillée par sonication (Sonotrode TC 4C). 100 µl de cette suspension sont utilisés pour la mesure de la radioactivité par scintillation liquide (SL 2000, Kontron intertechniques, Trappes, France) et 50 µl pour la détermination des taux de protéines (selon la méthode de Lowry et al.).
La capture non spécifique est étudiée simultanément à 0°C en présence des différentes concentrations de composé.
La capture spécifique (capture totale - capture à 0°C) est exprimée en fentomoles/mg de protéines.
Pour chaque concentration étudiée la mesure était faite en double, 3 à 5 expériences étant pratiquées à des jours différents (préparations synaptosomales différentes). Pour chaque composé, au moins 4 concentrations ont été étudiées (entre 10⁻⁹ et 10⁻⁶M habituellement).

A further data set deals with récepteur de la PCP. In words: Competition binding at the (3H)TCP sites on rat brain homogenates (Example 36). The conditions noted are these: 1 nM (3H)TCP, 30 min at 25°C. The text has this: Exemple 36 : Affinité des composés pour les sites de liaison de la (³H)TCP sur les homogénats de cerveaux de rats.
Dans cet essai on mesure les affinités des composés pour le récepteur de la PCP par des expériences de compétition sur des homogénats de cerveaux de rats. Le ligand radioactif utilisé est la (³H)TCP à une activité spécifique de 62 Ci/mmol (Service des Molécules Marquées, CEA Saclay France).
Les cerveaux de rats (sans le cervelet et le tronc cérébral) sont homogénéisés à l'ultra turax dans 20 volumes de tampon Hepes-Tris 50 mM, pH 7,7. Après centrifugation pendant 30 min à 15000 g le culot est repris dans le même volume de tampon et recentrifugé dans les mêmes conditions. Le culot final est repris dans du tampon Hepes-Tris 50 mM, pH 7,7 de façon à obtenir une concentration en protéine de 6 à 8 mg/ml.
Les expériences de compétition sont réalisées en incubant pendant 30 min les membranes (concentration finale en protéine : 0,6 à 0,8 mg/ml) en milieu tampon 5 mM Hepes-Tris, pH 7,7 à 25°C, en présence d'une concentration fixe de ligand tritié (1 nM)et de concentrations croissantes de composés à tester. Trois échantillons de 600 µL sont ensuite filtrés sur filtres de fibres de verre GF/B prétraités par du PEI (polyéthylénimine) à 0,1%. Les filtres sont rincés avec 3x5ml de tampon Tris-HCl 10 mM, NaCl 100 mM et la radioactivité retenue est mesurée dans un compteur à scintillation liquide. La liaison non spécifique est obtenue en présence de TCP […].

For a further data set, the system named is souris Swiss. In words: Locomotor activity of mice in the Boissier-Simon actimeter (Example 38). In kind it is in vivo. The note with it: for Activité locomotrice, effect compared with BTCP: 10 mg/kg i.p.; for Activité locomotrice Variation (%) par rapport aux témoins (100%) pour la dose 10 mg/kg,i.p.: 30 min after administration, beams crossed from 20th to 35th minute. Here is the method: Exemple 38 : Mesure de l'activité locomotrice.
L'activité locomotrice de souris Swiss (mâles CD1, 25-30 g, Charles River, St Aubin lès Elbeuf, France) est mesurée dans l'actimètre Boissier-Simon (Apelex, Bagneux, France).
30 minutes après l'administration des composés à tester (10 mg/kg, i.p.), les souris sont introduites dans des cages individuelles en Plexiglass (L = 26 cm, l = 20 cm, h = 10 cm), équipées de deux cellules photoélectriques situées à 1 cm au-dessus du plancher. Chaque cellule est reliée à un compteur électromécanique. "L'activité locomotrice" correspond au nombre de rayons traversés, de la 20ème à la 35ème minute après introduction dans les cages d'actimétrie.

T1 sequence (Q63380 1-617): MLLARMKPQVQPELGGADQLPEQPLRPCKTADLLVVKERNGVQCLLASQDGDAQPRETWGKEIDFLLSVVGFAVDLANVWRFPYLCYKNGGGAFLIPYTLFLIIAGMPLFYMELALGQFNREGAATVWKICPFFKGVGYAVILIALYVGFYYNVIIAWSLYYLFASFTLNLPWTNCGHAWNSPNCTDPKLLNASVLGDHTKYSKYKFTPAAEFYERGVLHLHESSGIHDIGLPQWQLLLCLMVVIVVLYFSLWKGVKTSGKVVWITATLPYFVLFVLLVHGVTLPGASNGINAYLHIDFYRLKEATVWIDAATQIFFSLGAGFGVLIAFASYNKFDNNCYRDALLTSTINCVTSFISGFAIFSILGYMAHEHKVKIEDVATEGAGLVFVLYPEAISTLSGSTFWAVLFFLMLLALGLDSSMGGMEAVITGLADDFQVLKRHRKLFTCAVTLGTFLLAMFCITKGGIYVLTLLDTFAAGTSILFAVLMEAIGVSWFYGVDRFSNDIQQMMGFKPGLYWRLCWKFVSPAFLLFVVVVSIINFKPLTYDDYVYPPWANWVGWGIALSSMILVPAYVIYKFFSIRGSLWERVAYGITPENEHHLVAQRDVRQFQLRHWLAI

`CC1CCCN(C2(c3cc4ccccc4s3)CCCCC2)C1` (stereo not shown) [composé n^o 2, (benzo(b)thiophényl-2)-1 ((méthyl-3 pipéridino)-1)-1 cyclohexane]: the mortality at 48 h in data set [1] came out at 10%. The values for the IC50 at capture de noradrénaline and on récepteur de la PCP were 40 ± 0.5 nM and 52000 nM, respectively. For the same compound, in the data set on souris Swiss, the “Activité locomotrice, effect compared with BTCP” value is on record as “effet supérieur à celui du BTCP”. For the same compound, in the data set with souris Swiss, the “Activité locomotrice Variation (%) par rapport aux témoins (100%) pour la dose 10 mg/kg,i.p.” value is on record as “+160±25%”.

`C[C@H]1CC[C@](c2cc3ccccc3s2)(N2CCCCC2)CC1` [composé n^o 20, (benzo(b)thiophényl-2)-1-t-méthyl-4-r-(pipéridino-1)-1 cyclohexane]: the mortality at 48 h in data set [1] is 0%. The figures for the IC50 on capture de noradrénaline and at récepteur de la PCP were 94.3 nM and 112000 nM, respectively. Moreover, the “Activité locomotrice Variation (%) par rapport aux témoins (100%) pour la dose 10 mg/kg,i.p.” value with souris Swiss is reported as “+40±22%”.

As to `c1ccc2oc(C3(N4CCCCC4)CCCCC3)cc2c1` [composé n^o 4, (benzo(b)furannyl-2)-1 (pipéridino-1)-1 cyclohexane], the mortality at 48 h in data set [1] was determined as 10%. On capture de noradrénaline, the IC50 was 22.2 nM. Further, the IC50 on récepteur de la PCP worked out at 40000 nM. For the same compound, in the data set on souris Swiss, the “Activité locomotrice, effect compared with BTCP” value is recorded as “effet supérieur à celui du BTCP” and the “Activité locomotrice Variation (%) par rapport aux témoins (100%) pour la dose 10 mg/kg,i.p.” value is given as “+169±19%”.

On to `CC1CC(C)CN(C2(c3cc4ccccc4s3)CCCCC2)C1` (stereo not shown) [composé n^o 6, (benzo(b)thiophényl-2)-1 ((diméthyl-3,5 pipéridino)-1)-1 cyclohexane], for which the mortality at 48 h in data set [1] turned out to be 10%. The IC50 at capture de noradrénaline is 12.5 nM; on récepteur de la PCP, > 100000 nM. Besides, the “Activité locomotrice Variation (%) par rapport aux témoins (100%) pour la dose 10 mg/kg,i.p.” value with souris Swiss is reported as “+84±12%”.

As to `OC1CCN(C2(c3cc4ccccc4s3)CCCCC2)CC1` [composé 26, (benzo(b)thiophényl-2)-1( (ol-4-pipéridino)-1)-1 cyclohexane], the IC50 on récepteur de la PCP stood at 31900 nM. Besides, the “Activité locomotrice Variation (%) par rapport aux témoins (100%) pour la dose 10 mg/kg,i.p.” value in the data set on souris Swiss was “+252±45%”.

For the compound `c1ccc2sc(C3(N4CCCCC4)CCCCC3)cc2c1` [BTCP, (benzo(b)thiophényl-2)-1 (pipéridino -1) cyclohexane, reference compound], the mortality at 48 h in data set [1] turned out to be 0%. Further, the IC50 at capture de noradrénaline turned out to be 18.3 nM; at récepteur de la PCP, 20000 nM. Also, the “Activité locomotrice Variation (%) par rapport aux témoins (100%) pour la dose 10 mg/kg,i.p.” value with souris Swiss is recorded as “+122±12%”.

As for `BrCC1CCCN(C2(c3cc4ccccc4s3)CCCCC2)C1` (stereo not shown) [composé n^o 10, (benzo(b)thiophényl-2)-1 ((bromométhyl-3 pipéridino)-1)-1 cyclohexane], in data set [1], the mortality at 48 h is 0%. For the same compound, the IC50 is 196 ± 31 nM at capture de noradrénaline and > 100000 nM at récepteur de la PCP. Further, the “Activité locomotrice Variation (%) par rapport aux témoins (100%) pour la dose 10 mg/kg,i.p.” value in the data set with souris Swiss is “+30±19%”.

On to `CCCN(CCC)C1(c2cc3ccccc3s2)CCCCC1` [composé no 3, (benzo(b)thiophényl-2)-1 (dipropylamino-1)-1 cyclohexane], for which the mortality at 48 h in data set [1] turned out to be 0%. In addition, the IC50 stood at 22.7 nM on capture de noradrénaline and 424000 nM at récepteur de la PCP. For the same compound, the “Activité locomotrice Variation (%) par rapport aux témoins (100%) pour la dose 10 mg/kg,i.p.” value in the data set with souris Swiss is listed as “+53±23%”.

In the case of `C[C@H]1CC[C@@](c2cc3ccccc3s2)(N2CCCCC2)CC1` [composé n^o 21, (benzo(b)thiophényl-2)-1 c-méthyl-4-r-(pipéridino-1)-1 cyclohexane], in data set [1], the mortality at 48 h amounted to 0%. For the same compound, the IC50 on capture de noradrénaline was found to be 16.5 nM. Besides, the IC50 on récepteur de la PCP was > 100000 nM. In addition, in the data set with souris Swiss, the “Activité locomotrice, effect compared with BTCP” value is “effet supérieur à celui du BTCP” and the “Activité locomotrice Variation (%) par rapport aux témoins (100%) pour la dose 10 mg/kg,i.p.” value is listed as “+175±27%”.
